Measurements taken from US20180244629A1, “Compounds And Compositions For The Treatment Of Cancer” (The Broad Institute, Inc., priority 2013, published 2018).
Read-outs that look alike come from different tables or passages of the source. Blank lines part the entries; values can stand above or below the compound they belong to.

Key:
Assay type in all cases: cell-based
COLO741 cells = assay: COLO741 Assay (Cell Titer Glo viability); conditions: Homo sapiens
Protocol: (§1) C0L0741 Assay Protocol. Day 0: C0L0741 cells (ECACC, C0L0741 93052621) are grown to 95% confluence in RPMI, 10% FBS/Pen/Strep/L-Glutamine. Day 1: Plate cells (1500 per well) in 40 μl culturing media using Corning 384-well plates (3570), incubate in standard TC conditions (5% CO2, 95% humidity, 37° C.) for 24 h. Day 2: Dilute each concentration of a half-log serial dilution of compound (1 mM-100 nM) 1:200 in culturing media and add […] (50 μl total volume) of that dilution to designated wells (8 replicates per concentration). The final dilution will be 1000×([…]). Day 4: Remove plate from incubator to cool for 20 minutes to room temperature. Add 40 μl of a 25% Promega Cell Titer Glo solution (diluted 1:3 with room temperature PBS) with Thermo combi or multichannel and incubate for 10 minutes. Read on Perkin-Elmer EnVision with US LUM settings for 0.1 second per well.
(§2) Compounds as shown were tested against various cells lines in vitro according to the methods described herein. Cells are plated in 384-well format in a total volume of 40 μl. Indicated compound concentrations were added 24 hrs after plating the cells. After 48 hrs cell viability was determined using Cell Titer Glo® Luminescent Cell Viability Assay.

HeLa cells = assay: HeLa Cytotoxicity Assay (Cell Titer Glo viability); conditions: Homo sapiens, HeLa
Protocol: HeLa Cytotoxicity Assay Protocol: Day 0: HeLa cells (ATCC, HeLa CCL-2) are grown to 95% confluence in DMEM, 10% FBS/Pen/Strep/L-Glutamine. Day 1: Plate cells (1000 per well) in 40 μl culturing media using Corning 384-well plates (3570), incubate in standard TC conditions (5% CO2, 95% humidity, 37 degrees C.) for 24 hours. Day 2: Dilute each concentration of a half-log serial dilution of compound (1 mM-100 nM) 1:200 in culturing media and add 10 μl (50 μl total volume) of that dilution to designated wells (8 replicates per concentration). The final dilution will be 1000×(1 μM-100 pM). Day 4: Remove plate from incubator to cool for 20 minutes to room temperature. Add 40 μl of a 25% Promega Cell Titer Glo solution (diluted 1:3 with room temperature PBS) with Thermo combi or multichannel and incubate for 10 minutes. Read on Perkin-Elmer EnVision with US LUM settings for 0.1 second per well.
as §2
as §2, with “Known PDE3 inhibitors” for “Compounds”, “shown below” for “shown”

H2122 cells = assay: H2122 Assay (Cell Titer Glo viability); conditions: Homo sapiens
Protocol: Selective toxicity in cell line panel. H2122 Assay Protocol Day 0: H2122 cells (ATCC, H2122 CCL-5985) are grown to 95% confluence in RPMI, 10% FBS/Pen/Strep/L-Glutamine. Day 1: Plate cells (750 per well) in 40 μl culturing media using Corning 384-well plates (3570), incubate in standard TC conditions (5% CO2, 95% humidity, 37 degrees C.) for 24 h. Day 2: Dilute each concentration of a half-log serial dilution of compound (1 mM-100 nM) 1:200 in culturing media and add 10 μl (50 μl total volume) of that dilution to designated wells (8 replicates per concentration). The final dilution will be 1000×([…]). Day 4: Remove plate from incubator to cool for 20 minutes to room temperature. Add 40 μl of a 25% Promega Cell Titer Glo solution (diluted 1:3 with room temperature PBS) with Thermo combi or multichannel and incubate for 10 minutes. Read on Perkin-Elmer EnVision with US LUM settings for 0.1 second per well.
as §2

H1563 = H1563 cell line viability (Cell Titer Glo); conditions: Homo sapiens, NCI-H1563; n = 2; read-out: Potency (EC50) H1563
Protocol: as §2

A549 cells = assay: A549 Cytotoxicity Assay (Cell Titer Glo viability); conditions: Homo sapiens, A549
Protocol: as §1, with “A549 Cytotoxicity Assay” for “C0L0741 Assay”, “0: A549” for “0: C0L0741”, “cells (ATCC, A549 CCL-185)” for “cells (ECACC, C0L0741 93052621)”, “cells (1000” for “cells (1500”, “10 min.” for “10 minutes.”
A549 Assay Protocol. Day 0: A549 cells (ATCC) are grown in a Triple flask (NUNC) to ˜95% confluence (TrypLE Phenol Red free) and resuspended for dispensing at 25,000 cells/mL of DMEM, 10% FBS/Pen/Strep/L-Glutamine (using the TAP Compact SelecT automated cell culture system). Day 1: Plate cells at 1000 per well in 40 uL media (DMEM/10% FBS/Pen/Strep/L-Glutamine) using Corning 8867BC 384 well plates; incubate in standard TC conditions (5% CO2; 95% humidity, 37° C.) for 24 hours (Compact SelecT). Day 2: Add 100 nL compound per well at dose into 40 uL assay volume using a pin tool (CyBi Well). Pin 100 nL cytotoxic compounds, mitoxantrone (CID 4212) to positive control wells to a final concentration of 10 μM (100 nL 4 mM DMSO stock). Incubate for […] at 37° C. in Liconic incubator, 95% humidity 5% CO2. Day 4: Remove plate from incubator, cool for 15 minutes to room temperature; add 20 μL 50% Promega CellTiterGlo (diluted 1:1 with PBS, pH 7.4) with Thermo Combi. Incubate at room temperature for 5 minutes. Read plates on Perkin-Elmer EnVision with standard luminescence settings for 0.1 sec per well.
as §2
as §2, with “Known PDE3 inhibitors” for “Compounds”, “shown below” for “shown”

[1] = COLO-741, Example 18, Mean ± SD (n = 3), read-out: Potency (EC50 nM) COLO741
[2] = Example 18, Mean ± SD (n = 3), read-out: Potency (EC50 nM) HeLa
[3] = NCI-H2122, Example 18, Mean ± SD (n = 3), read-out: Potency (EC50 nM) H2122
[4] = n = 2, read-out: Potency (EC50) A549
[5] = n = 2, read-out: Potency (EC50) HeLa
[6] = NCI-H2122, n = 2, read-out: Potency (EC50) H2122
[7] = 48 h, Cell Titer Glo, read-out: EC50 HeLa
[8] = 48 hrs, Cell Titer Glo, read-out: EC50 A549
[9] = NCI-H2122, 48 h, 48 hrs, Cell Titer Glo, read-out: EC50 H2122
[10] = Mean ± SD (n = 3), read-out: Potency (EC50 nM) HeLa
[11] = Mean ± SD (n = 3), read-out: Potency (EC50 nM) A549

- EC50 (H1563): 3 nM
- EC50 (H2122 cells; [6]): 1 nM
Compound: CC1CC(=O)NN=C1c1ccc(N2CCCCC2)c([N+](=O)[O-])c1 (stereo not shown)
- EC50 (HeLa cells; [5]): 1 nM
- EC50 (A549 cells; [4]): > 10000 nM

- EC50 (COLO741 cells; [1]): 7.8 ± 0.3 nM
- EC50 (H2122 cells; [3]): 12.3 ± 3.4 nM
Compound: CC(=O)Nc1ccc(C2=NNC(=O)C[C@H]2C)cc1[N+](=O)[O-] [drawing 221]
- EC50 (HeLa cells; [2]): 4.9 ± 1.1 nM

- EC50 (H1563): 3 nM
Compound: CC1CC(=O)NN=C1c1ccc(N2CCOCC2)c([N+](=O)[O-])c1 (stereo not shown)
- EC50 (A549 cells; [4]): > 10000 nM

- EC50 (H2122 cells; [9]): 10.3 to 15.6 nM
Compound: CCN(CC)c1ccc(C2=NNC(=O)CC2C)cc1[N+](=O)[O-] (stereo not shown) [drawing 137]
- EC50 (HeLa cells; [7]): 5.5 to 8.7 nM
- EC50 (A549 cells; [8]): > 10000 nM

- EC50 (H1563): 40 nM
- EC50 (H2122 cells; [6]): 11 nM
Compound: CC1CC(=O)NN=C1c1ccc(NCCO)c([N+](=O)[O-])c1 (stereo not shown)
- EC50 (HeLa cells; [5]): 4 nM
- EC50 (A549 cells; [4]): > 10000 nM

- EC50 (H1563): > 10000 nM
Compound: CC1CC(=O)NN=C1c1ccc(N)c([N+](=O)[O-])c1 (stereo not shown)
- EC50 (A549 cells; [4]): > 10000 nM

- EC50 (H1563): > 10000 nM
Compound: CC1CC(=O)NN=C1c1ccc(/N=C\c2ccccc2[N+](=O)[O-])cc1 (stereo not shown)
- EC50 (A549 cells; [4]): > 10000 nM

The remaining lines, values behind:

Compound: O=C1CN2Cc3c(ccc(Cl)c3Cl)NC2=N1
- EC50 (COLO741 cells; [1]): 12.2 ± 0.9 nM
- EC50 (HeLa cells; [2]): 6.8 ± 0.9 nM
- EC50 (H2122 cells; [3]): 17.4 ± 3.5 nM

Compound: CCN(CC)c1ccc(C(=O)Nc2cccc(OC)c2)cc1[N+](=O)[O-]
- EC50 (H1563): > 10000 nM
- EC50 (A549 cells; [4]): > 10000 nM

Compound: COc1ccc(CC(=O)N2CCN(c3ccc(C4=NNC(=O)CC4C)cc3[N+](=O)[O-])CC2)cc1 (stereo not shown)
- EC50 (H1563): > 10000 nM
- EC50 (A549 cells; [4]): > 10000 nM

Compound: CCN(CC)c1ccc(C#N)cc1[N+](=O)[O-]
- EC50 (H1563): > 10000 nM
- EC50 (A549 cells; [4]): > 10000 nM

Compound: CCN1N=C(c2ccc(N(CC)CC)cc2)[C@H](C)CC1=O [drawing 140]
- EC50 (COLO741 cells; COLO-741, 48 h, 48 hrs, Cell Titer Glo, read-out: EC50 COLO741): > 1000 nM
- EC50 (HeLa cells; [7]): > 10000 nM
- EC50 (A549 cells; [8]): > 10000 nM
- EC50 (H2122 cells; [9]): > 1000 nM

Compound: O=C(O)Cc1n[nH]c(=O)c2ccccc12
- EC50 (H1563): > 10000 nM
- EC50 (A549 cells; [4]): > 10000 nM

Compound: C[C@@H]1CC(=O)NN=C1c1ccc(C2CCCCC2)cc1 [drawing 216]
- EC50 (COLO741 cells; [1]): 11.4 ± 0.3 nM
- EC50 (HeLa cells; [2]): 7.7 ± 1.3 nM
- EC50 (H2122 cells; [3]): 29.6 ± 8.7 nM

Compound: Cc1cc(=O)[nH]nc1-c1ccc(N)cc1 [drawing 149]
- EC50 (HeLa cells; [7]): > 1000 nM
- EC50 (A549 cells; [8]): > 10000 nM

Compound: CCN(CC)c1ccc(C(=O)Nc2ccccc2)cc1[N+](=O)[O-]
- EC50 (HeLa cells; [5]): > 10000 nM
- EC50 (A549 cells; [4]): > 10000 nM

Compound: C[C@@H]1CC(=O)NN=C1c1ccc(I)cc1
- EC50 (HeLa cells; [10]): 7.1 ± 0.8 nM
- EC50 (A549 cells; [11]): > 10000 nM

Compound: CC(=O)Nc1ccc(C2=NNC(=O)C[C@H]2C)cc1 [drawing 174]
- EC50 (HeLa cells; [10]): > 1000 nM
- EC50 (A549 cells; [11]): > 10000 nM
